Tests used:
[1] = Cloud point of surfactant; format: physicochemical; conditions: about 1% detergent concentration in 6×SSPE buffer
Protocol: In some aspects surfactants are selected for use in the methods because they have a cloud point (temperature at which the solid begins to precipitate and give the fluid a cloudy appearance) greater than or equal to 80° C., greater than or equal to 90° C. and in particularly preferred aspects the cloud point is greater than about 100° C. (in each case when measured at about 1% aqueous). The cloud point is the temperature above which a surfactant solution separates into a detergent rich phase and a detergent poor phase (see, Rosen et al. Surfactants and interfacial Phenomena, ^3rd ed. 2004, Hoboken; John Wiley & Sons, Inc. and Neugebauer, J. M. Detergents: an overview, Methods Enzymol, 1990, 182, p. 239-53). The separation is visualized as turbidity within the solution. An increase in temperature favors micelle formation; the rapid growth of micelles along with intermicellar attraction likely results in the formation of large particles that can precipitate out of solution, thus causing turbidity. This phase separation is reversible upon cooling. […]
The amine oxide detergents of the present invention have higher cloud points than their non-amine oxide counterparts. For example, PEO(10)stearlyamine has a cloud point of 60° C. compared to PEO(10)stearylamine N-oxide's cloud point of greater than 100° C., in both cases when measured at about 1% detergent concentration in 6×SSPE buffer. […]

[2] = target: T1, Taq DNA Polymerase (Thermus aquaticus, UniProt P19821); assay: PCR amplification of a 455 bp human numb target with Taq DNA Polymerase in the presence of surfactant, product seen on agarose gel; format: biochemical; conditions: for PCR product of the expected size: FIG. 1, diluted Taq with 0.00011% Tween-20 and NP-40 carry-over; for Function: Table 1 summary: surfactants or blocked co-polymers that worked in the assay used and those that did not
T1 construct: made in house
Protocol: In order to test the efficacy of detergents on Taq DNA Polymerase, a stock of Taq DNA Polymerase at a base concentration of 111 units/ul was diluted to 5 units/ul in a storage buffer that lacked detergents. The standard Taq DNA Polymerase storage buffer has 0.5% Tween-20 and 0.5% NP-40. In this example 0.625 units of Taq were added per 25 ul reaction, so that represents a change in final detergent concentration of 0.0025% each detergent to 0.00011% of each. A 455 bp single-copy target from the human numb gene was PCR-amplified from 1 ng human genomic DNA in a 25 ul reaction with 0.625 units of the diluted Taq DNA polymerase. The cycling conditions were 95° C. for 2 minutes; 35 cycles of 95° C. for 10 seconds, 55° C. for 20 seconds, and 72° C. for 30 seconds; 72° C. for 5 minutes; and 10° C. until required. An aliquot of 10 ul was run on a 1.5% agarose/ethidium bromide gel.
In FIG. 1, the results of the initial screen of several non-ionic and zwitterionic detergents are shown. In this example there is residual Tween-20 and NP-40 in the enzyme storage buffer. The concentrations of surfactants listed are the final concentration of that surfactant in the assay. All conditions in the example, including the “no detergent” condition, have 0.00011% Tween-20 and 0.00011% NP-40 resulting from carry-over from the enzyme storage buffer. […] As expected Tween-20 and NP-40 worked when present at 0.01% and 0.1%. […] A0-12-2 worked at 0.01% and PEO(10)SAP worked at 0.01, 0.1 and 1%. It is clear that in addition to the standard non-ionic detergents with PEOn, a zwitterionic or ylide with that polymer will also contribute to PCR product generation.
Because a small amount of Tween-20 and NP-40 was carried over in the previous experiment, Taq DNA Polymerase was purified without the addition of detergents after the lysis step to provide a “detergent-free” Taq for use in the next example. The previous numb target and reaction conditions were used with 0.625 units of Taq per reaction.
To further test the effectiveness of PEOn-derivatives, the denaturation temperature was changed from 95° C. to 98° C. in the cycling protocol. This increase in temperature adds additional stress to the function of Taq DNA Polymerase. A selection of PLURONIC® and TETRONIC® surfactants were tested (labels in the figures are abbreviated, for example, “T908” refers to TETRONIC® 908 and “P F87” refers to PLURONIC® F87). In addition, TETRONIC® 904 and 1107 were modified to amine-oxide, forms and then tested.

[3] = tested on: thermostable DNA polymerase; assay: Evaluation of protecting groups for reversible modification (hot-start inactivation) of thermostable polymerase; format: biochemical; conditions: reactivity tested in Tris pH 8 or Tricine pH 8.8
Protocol: Three classes of protecting groups were evaluated: 2,3-substituted maleic anhybrides, alpha-activated compounds that can undergo beta-elimination and molecules that can undergo intramolecular cyclic displacement or assisted elimination. The experimental compounds had the general structure:
Where Y could be N-hydroxysuccinimide (NHS), p-nitrophenol (pNP), or imidazole and X could be CONMe2, MeSO2, CN, NO2, CO2Me, (CH2)2SMe, N(CH3)CHO, or CH2C(O)CH3. The reactivity was tested in Tris pH 8 or Tricine pH 8.8. Buffer pH measurements are at room temperature (˜25° C.). […]

T1 sequence (P19821 whole entry): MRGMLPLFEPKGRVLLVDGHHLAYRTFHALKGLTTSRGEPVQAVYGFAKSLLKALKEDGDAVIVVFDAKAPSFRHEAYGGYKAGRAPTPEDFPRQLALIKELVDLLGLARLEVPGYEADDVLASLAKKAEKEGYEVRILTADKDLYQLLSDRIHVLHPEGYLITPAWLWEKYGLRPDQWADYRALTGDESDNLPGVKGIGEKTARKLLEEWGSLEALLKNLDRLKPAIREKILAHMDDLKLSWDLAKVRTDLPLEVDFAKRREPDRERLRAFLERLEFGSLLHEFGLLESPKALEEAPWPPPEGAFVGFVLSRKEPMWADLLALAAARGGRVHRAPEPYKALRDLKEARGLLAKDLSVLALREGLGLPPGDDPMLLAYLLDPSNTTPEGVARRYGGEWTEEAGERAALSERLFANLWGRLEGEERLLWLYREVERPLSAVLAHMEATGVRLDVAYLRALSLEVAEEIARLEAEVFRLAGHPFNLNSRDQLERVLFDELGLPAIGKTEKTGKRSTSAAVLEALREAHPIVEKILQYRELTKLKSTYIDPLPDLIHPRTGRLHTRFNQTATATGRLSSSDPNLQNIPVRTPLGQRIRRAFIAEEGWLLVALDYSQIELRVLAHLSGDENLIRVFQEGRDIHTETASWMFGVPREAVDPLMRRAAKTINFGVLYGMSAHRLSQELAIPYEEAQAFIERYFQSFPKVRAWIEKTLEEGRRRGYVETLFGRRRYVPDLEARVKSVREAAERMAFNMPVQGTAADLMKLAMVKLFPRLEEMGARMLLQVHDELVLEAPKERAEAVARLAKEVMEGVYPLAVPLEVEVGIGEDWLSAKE

Compound | PCR product of the expected size ([2]; 0.01% surfactant final) | PCR product of the expected size ([2]; 0.1% surfactant final) | PCR product of the expected size ([2]; 1% surfactant final) | Function [2] | also measured
Polyethoxylated (10) Stearylamine N-Oxide [PE0 (10) SAO] | worked | worked | worked | YES | cloud point [1]: greater than 100 °C; PCR product ([2]; detergent-free Taq DNA Polymerase, FIG. 2, 3, 4): PCR product was observed
Polyethoxylated/Polypropoxylated (isodecyloxypropyl)amine N-Oxide [AO-405] | – | – | – | – | PCR product of the expected size ([2]; concentration not given): no visible product
NP 40 [reference compound] | worked | worked | – | YES | –
PEO(10) Stearyl (3-sulfo-propyl)-ammonium [PEO(10) SAPS] | – | – | – | YES | –
CS(=O)(=O)CCOC(=O)Oc1ccc([N+](=O)[O-])cc1 [MSEC, 2-(Methylsulfonyl)ethyl 4-nitrophenyl carbonate] | – | – | – | – | effectiveness as reversible modifier of polymerase [3]: most effective
CCCCCCCCCCCC[N+]([O-])(CCO)CCO [AO-12-2, N,N-Bis(2-hydroxyethyl)laurylamine N-Oxide] | resulted in a product | not | not | – | PCR product of the expected size ([2]; 0.01% surfactant final, listed as A0-12-2): worked

— patent publication US9085761B1, “Methods and compositions for amplification of nucleic acids” (Affymetrix, Inc., priority 2012, dated 2015)
